Test results from patent US20100216795A1, “TNIK INHIBITOR AND THE USE” (priority 2008, published 2010).

Experiments:
Type in all cases: biochemical
[1] = molecular target: T1, human TNIK (N-terminal segment, TNIK_N) (Homo sapiens, UniProt Q9UKE5); assay: TNIK kinase assay (mobility shift); conditions: stated in text of Test Example 2
T1 construct: made in house; host or cells: Sf21 insect cells (baculovirus)
Text: A cDNA encoding the N-terminal segment (TNIK_N, residues 1-314) containing the kinase domain of human TNIK (NM_015028.1) was amplified from cDNA mixture synthesized from human tissue (Biochain) by PCR using the following primers: 5′-[…]-3′ ([SEQ ID NO:1]: forward primer, the underlined nucleotides indicates the location of a EheI site); 5′-[…]-3′ ([SEQ ID NO:2]: reverse primer, the underlined nucleotides indicates the location of a NotI site). The cDNA was subcloned into baculovirus transfer vector pFastBac_GSTb that includes protease cleavage site and glutathione S-transferase purification tag (GST-tag). The plasmid was purified and the insertion of the pFastBac_GSTb-TNIK_N was confirmed by DNA sequencing. Then E. coli DH10Bac competent cells were transformed with the plasmid to prepare the recombinant bacmid according to the instructions for the Bac-to-Bac™ baculovirus expression systems (Invitrogen). The Sf9 cells were transfected with the recombinant bacmid containing pFastBac_GSTb-TNIK_N using Cellfectin Reagent (Invitrogen) in SF-900II serum free media (Invitrogen). The viral supernatant was collected from the medium 72 h after transfection. The virus was amplified three times by infecting actively growing Sf9 or Sf21 cells in Grace's insect media (Invitrogen) supplemented with 10% FCS and an antibiotic-antimycotic reagent (Invitrogen) for 72 h at 27° C. in T-flask or roller bottles. The titer of amplified TNIK_N virus was estimated at 2.36×10^8 pfu/ml by using BacPAK™ Baculovirus Rapid Titer kit (Clontech).
Log-phase Sf21 cells (2×10^6 cells/ml) in the Grace's insect media were infected with the recombinant baculovirus at MOI of 3.0 and incubated in roller bottles (250 ml media per bottle) for 72 h at 27° C., after which, the cells were collected by centrifugation, and the cell pellet washed with cold PBS and kept at −80° C. until purification. The following purification procedures were carried out at 4° C. The frozen cells were thawed on ice and lysed in lysis buffer (50 mM Tris-HCl, pH 7.5, 150 mM NaCl, 1% Nonidet P-40, 5 mM DTT, 0.5 mM EDTA, 0.5 mM EGTA) supplemented with 1 mM phenylmethansulfonylfluoride, 2 μg/ml leupeptin, 2 μg/ml aprotinin, 1 mM NaF, 100 μM sodium orthovanadate, and 1 μM cantharidin by sonication. The suspended lysate was cleared by centrifugation at 9000 g for 20 min and the supernatant was incubated for 1 h with glutathione Sepharose beads (GE Healthcare). The beads were suspended in buffer-H (50 mM Tris-HCl, pH 7.5, 1 M NaCl, 1 mM DTT, 0.5 mM EDTA, 0.5 mM EGTA and 0.05% Brij35) and washed with buffer-H followed by buffer-L (50 mM Tris-HCl, pH 7.5, 150 mM NaCl, 1 mM DTT, 0.5 mM EDTA, 0.5 mM EGTA, 0.05% Brij35) in an Econo-pack column (BIO-RAD). The bound TNIK_N was eluted with elution buffer (50 mM Tris-HCl, pH 8.0, 150 mM NaCl, 1 mM DTT, 10% glycerol, 0.5 mM EDTA, 0.5 mM EGTA and 5 mM reduced glutathione). The eluted fractions were collected and determined the protein concentration by Bradford reagent (BIO-RAD). The TNIK_N fractions were pooled and desalted using 10DG column (BIORAD) equilibrated with the storage buffer (50 mM Tris-HCl, pH 7.5, 150 mM NaCl, 1 mM DTT, 10% glycerol, 0.05% Brij35). The purified TNIK_N was characterized by electrophoresis using 4-20% polyacrylamide gels and matrix-assisted laser desorption/ionization reflection time-of-flight (MALDI-TOF) mass spectrometry on a Voyager-DE RP MALDI/TOF (Applied Biosystems). TNIK_N was confirmed by the molecular weight and MASCOT Peptide Mass Fingerprint.
The kinase assays were conducted in a 20 μl volume using 384-well plates (Greiner). The reaction mixture consists of compound or vehicle (1% DMSO), 0.08 ng/μl TNIK_N, 1 μM FITC-labeled substrate peptides, FITC-x-Lys-Tyr-Lys-Thr-Leu-Arg-Gln ([SEQ ID NO.3], x: ε-aminocaproic acid), 20 mM Hepes, pH 7.5, 0.01% Triton X-100, 5 mM MgCl2, 25 μM ATP and 2 mM DTT. As blank, TNIK_N was excluded from the reaction mixture of vehicle (1% DMSO). […]

[2] = molecular target: T2, EphA2 (Homo sapiens, UniProt P29317); assay: Selectivity profiling, QuickScout TK Screening Panel
T2 construct: purchased Carna Biosciences
Method: (§1) The inhibitory effects of Compound 1 against 20 tyrosine kinases and 30 serine/threonine kinases were investigated using QuickScout™ TK and STK Screening Panel (Carna Biosciences, Kobe Japan). […] The results reveal that Compound 1 inhibits TNIK_N more potently (IC50; 9 nM) than the other 50 kinases.

[3] = molecular target: T3, FLT3 (Homo sapiens, UniProt P36888); assay: as above
T3 construct: purchased Carna Biosciences
Method: as §1

[4] = molecular target: T4, CSK (Homo sapiens, UniProt P41240); assay: as above
T4 construct: purchased Carna Biosciences
Method: as §1

[5] = molecular target: T5, EphB4 (Homo sapiens, UniProt P54760); assay: as above
T5 construct: purchased Carna Biosciences
Method: as §1

[6] = molecular target: T6, MET (Homo sapiens, UniProt P08581); assay: as above
T6 construct: purchased Carna Biosciences
Method: as §1

[7] = molecular target: T7, TRKA (Homo sapiens, UniProt P04629); assay: as above
T7 construct: purchased Carna Biosciences
Method: as §1

[8] = molecular target: T8, PDGFRa (Homo sapiens, UniProt P16234); assay: as above
T8 construct: purchased Carna Biosciences
Method: as §1

[9] = molecular target: T9, PYK2 (Homo sapiens, UniProt Q14289); assay: as above
T9 construct: purchased Carna Biosciences
Method: as §1

[10] = molecular target: T10, SYK (Homo sapiens, UniProt P43405); assay: as above
T10 construct: purchased Carna Biosciences
Method: as §1

[11] = molecular target: T11, FGFR1 (Homo sapiens, UniProt P11362); assay: as above
T11 construct: purchased Carna Biosciences
Method: as §1

[12] = molecular target: T12, TIE2 (Homo sapiens, UniProt Q02763); assay: as above
T12 construct: purchased Carna Biosciences
Method: as §1

[13] = molecular target: T13, IGF1R (Homo sapiens, UniProt P08069); assay: as above
T13 construct: purchased Carna Biosciences
Method: as §1

[14] = molecular target: T14, SRC (Homo sapiens, UniProt P12931); assay: as above
T14 construct: purchased Carna Biosciences
Method: as §1

Measured: IC50

T4 sequence (P41240 whole entry): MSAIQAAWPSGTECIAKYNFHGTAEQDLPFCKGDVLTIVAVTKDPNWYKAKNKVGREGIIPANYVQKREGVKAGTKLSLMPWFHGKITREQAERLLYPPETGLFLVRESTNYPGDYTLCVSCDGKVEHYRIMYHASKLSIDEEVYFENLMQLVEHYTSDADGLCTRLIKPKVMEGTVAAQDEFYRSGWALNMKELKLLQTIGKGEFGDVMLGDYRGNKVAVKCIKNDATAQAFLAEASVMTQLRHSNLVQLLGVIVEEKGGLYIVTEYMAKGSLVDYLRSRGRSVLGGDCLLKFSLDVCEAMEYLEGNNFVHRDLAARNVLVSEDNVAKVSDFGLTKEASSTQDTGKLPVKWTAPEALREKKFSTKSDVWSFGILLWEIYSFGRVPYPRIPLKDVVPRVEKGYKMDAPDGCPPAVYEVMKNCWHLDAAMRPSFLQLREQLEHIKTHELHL
T8 sequence (P16234 24-1089): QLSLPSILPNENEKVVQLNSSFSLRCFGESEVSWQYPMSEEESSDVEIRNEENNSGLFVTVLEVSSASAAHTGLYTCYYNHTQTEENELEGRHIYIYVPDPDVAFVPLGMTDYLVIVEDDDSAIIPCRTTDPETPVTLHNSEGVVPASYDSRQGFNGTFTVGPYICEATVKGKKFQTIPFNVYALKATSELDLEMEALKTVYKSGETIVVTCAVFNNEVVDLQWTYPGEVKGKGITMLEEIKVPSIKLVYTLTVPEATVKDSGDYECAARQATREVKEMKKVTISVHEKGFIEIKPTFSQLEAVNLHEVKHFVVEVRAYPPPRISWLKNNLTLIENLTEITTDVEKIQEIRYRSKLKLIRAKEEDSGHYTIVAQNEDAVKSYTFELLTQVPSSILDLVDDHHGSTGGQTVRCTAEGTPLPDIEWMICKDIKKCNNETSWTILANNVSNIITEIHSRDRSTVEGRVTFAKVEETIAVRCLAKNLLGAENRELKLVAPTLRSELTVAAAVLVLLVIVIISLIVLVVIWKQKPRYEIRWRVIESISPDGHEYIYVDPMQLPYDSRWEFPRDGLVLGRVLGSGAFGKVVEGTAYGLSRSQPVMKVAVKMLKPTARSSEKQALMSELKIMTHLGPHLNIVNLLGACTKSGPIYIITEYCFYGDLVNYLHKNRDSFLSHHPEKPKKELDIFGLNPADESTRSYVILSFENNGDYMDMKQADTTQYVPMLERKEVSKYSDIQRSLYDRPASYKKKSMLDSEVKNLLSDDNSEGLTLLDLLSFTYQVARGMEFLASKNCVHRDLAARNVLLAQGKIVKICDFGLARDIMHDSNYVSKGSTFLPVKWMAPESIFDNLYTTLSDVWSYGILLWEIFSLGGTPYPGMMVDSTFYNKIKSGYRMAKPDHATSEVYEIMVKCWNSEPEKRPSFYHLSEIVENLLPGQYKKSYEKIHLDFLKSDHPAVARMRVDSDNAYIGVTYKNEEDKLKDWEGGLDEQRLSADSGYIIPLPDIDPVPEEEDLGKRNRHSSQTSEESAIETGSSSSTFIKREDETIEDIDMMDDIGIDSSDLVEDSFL
T14 sequence (P12931 whole entry): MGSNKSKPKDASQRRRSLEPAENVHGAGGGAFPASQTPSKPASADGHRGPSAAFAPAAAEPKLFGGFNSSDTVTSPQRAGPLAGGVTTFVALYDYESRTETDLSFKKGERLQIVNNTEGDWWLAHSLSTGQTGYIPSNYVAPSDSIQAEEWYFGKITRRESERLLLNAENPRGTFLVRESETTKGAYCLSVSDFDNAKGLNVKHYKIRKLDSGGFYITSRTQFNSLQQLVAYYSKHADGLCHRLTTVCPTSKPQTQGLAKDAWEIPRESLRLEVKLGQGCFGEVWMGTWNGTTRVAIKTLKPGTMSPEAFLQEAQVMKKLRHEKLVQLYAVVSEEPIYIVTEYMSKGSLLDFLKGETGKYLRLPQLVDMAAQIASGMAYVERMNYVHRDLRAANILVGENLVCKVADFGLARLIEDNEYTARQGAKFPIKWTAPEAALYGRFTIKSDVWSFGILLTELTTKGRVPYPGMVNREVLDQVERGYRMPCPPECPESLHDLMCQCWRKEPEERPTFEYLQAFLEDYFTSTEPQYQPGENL
T1 sequence (Q9UKE5 1-314): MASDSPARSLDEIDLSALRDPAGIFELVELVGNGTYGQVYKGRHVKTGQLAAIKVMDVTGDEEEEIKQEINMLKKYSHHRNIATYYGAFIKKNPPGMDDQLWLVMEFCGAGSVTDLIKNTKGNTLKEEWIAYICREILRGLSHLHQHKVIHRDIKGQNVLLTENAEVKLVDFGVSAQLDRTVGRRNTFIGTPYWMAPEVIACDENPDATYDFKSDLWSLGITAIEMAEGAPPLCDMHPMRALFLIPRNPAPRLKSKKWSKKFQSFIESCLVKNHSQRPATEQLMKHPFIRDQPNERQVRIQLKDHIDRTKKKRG
T13 sequence (P08069 31-1367): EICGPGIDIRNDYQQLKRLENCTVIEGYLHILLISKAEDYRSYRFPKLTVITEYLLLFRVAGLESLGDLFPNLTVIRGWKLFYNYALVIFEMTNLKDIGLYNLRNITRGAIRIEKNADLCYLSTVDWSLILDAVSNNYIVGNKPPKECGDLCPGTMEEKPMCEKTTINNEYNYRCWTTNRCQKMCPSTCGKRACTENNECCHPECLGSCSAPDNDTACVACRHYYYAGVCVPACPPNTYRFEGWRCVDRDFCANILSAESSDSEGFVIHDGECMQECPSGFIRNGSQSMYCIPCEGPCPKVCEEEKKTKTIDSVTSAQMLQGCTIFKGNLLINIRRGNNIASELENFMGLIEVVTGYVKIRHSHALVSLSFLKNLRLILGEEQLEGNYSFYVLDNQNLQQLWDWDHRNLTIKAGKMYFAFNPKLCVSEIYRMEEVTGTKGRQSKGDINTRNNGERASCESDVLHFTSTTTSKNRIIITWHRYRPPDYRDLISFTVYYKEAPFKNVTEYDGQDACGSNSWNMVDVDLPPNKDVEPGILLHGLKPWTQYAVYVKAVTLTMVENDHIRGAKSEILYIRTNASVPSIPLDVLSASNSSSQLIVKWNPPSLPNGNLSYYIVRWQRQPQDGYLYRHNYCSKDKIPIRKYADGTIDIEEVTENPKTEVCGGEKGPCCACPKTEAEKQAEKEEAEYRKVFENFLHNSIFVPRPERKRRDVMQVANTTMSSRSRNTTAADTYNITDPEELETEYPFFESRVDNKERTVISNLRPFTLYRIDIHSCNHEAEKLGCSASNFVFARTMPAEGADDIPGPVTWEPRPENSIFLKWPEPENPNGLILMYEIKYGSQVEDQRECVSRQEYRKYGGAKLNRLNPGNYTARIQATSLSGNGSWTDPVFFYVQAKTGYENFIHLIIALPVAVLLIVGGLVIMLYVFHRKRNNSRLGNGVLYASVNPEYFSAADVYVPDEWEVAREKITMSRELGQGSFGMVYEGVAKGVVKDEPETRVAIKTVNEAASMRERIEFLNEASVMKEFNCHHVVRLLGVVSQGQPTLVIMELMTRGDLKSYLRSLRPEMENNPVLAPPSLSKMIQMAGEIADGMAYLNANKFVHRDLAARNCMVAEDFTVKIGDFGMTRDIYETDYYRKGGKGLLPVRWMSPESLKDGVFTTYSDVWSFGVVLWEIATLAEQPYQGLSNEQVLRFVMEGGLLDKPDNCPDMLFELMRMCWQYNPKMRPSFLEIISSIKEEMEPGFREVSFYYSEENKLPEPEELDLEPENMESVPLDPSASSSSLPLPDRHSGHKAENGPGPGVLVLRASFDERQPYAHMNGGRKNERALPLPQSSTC
T11 sequence (P11362 22-822): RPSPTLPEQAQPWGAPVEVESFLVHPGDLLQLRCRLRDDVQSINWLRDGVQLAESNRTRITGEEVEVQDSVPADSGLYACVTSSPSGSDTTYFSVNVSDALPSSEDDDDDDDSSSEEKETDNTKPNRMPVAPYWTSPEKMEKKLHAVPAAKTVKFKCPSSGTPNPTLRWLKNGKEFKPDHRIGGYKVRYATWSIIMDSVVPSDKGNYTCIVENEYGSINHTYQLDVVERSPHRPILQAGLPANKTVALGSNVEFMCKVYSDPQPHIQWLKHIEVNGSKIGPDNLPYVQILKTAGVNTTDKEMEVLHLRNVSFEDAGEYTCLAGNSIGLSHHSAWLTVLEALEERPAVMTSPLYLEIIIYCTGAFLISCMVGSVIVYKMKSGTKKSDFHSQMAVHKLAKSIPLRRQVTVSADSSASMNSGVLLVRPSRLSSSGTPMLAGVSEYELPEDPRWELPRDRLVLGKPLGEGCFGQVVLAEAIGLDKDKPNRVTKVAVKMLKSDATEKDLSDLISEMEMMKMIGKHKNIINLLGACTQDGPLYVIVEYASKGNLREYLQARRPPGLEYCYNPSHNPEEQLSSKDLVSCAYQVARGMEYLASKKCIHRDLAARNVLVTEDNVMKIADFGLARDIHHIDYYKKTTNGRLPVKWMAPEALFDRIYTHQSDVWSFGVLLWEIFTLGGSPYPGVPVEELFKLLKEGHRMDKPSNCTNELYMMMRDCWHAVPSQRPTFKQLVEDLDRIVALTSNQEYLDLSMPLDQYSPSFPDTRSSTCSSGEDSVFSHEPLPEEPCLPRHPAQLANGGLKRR

CC(=O)Nc1ccc(C(=O)Nc2sc(Nc3ccccc3)nc2C(N)=O)cc1 [Compound 1, 5-(4-acetamidobenzamido)-2-(phenylamino)thiazole-4-carboxamide]
150 nM: [8]
9 nM: [1]
95 nM: [3]
> 300 nM: all other assays above
